According to patent publication US20260297085A1, “1 H-PYRROLO[2,3-B]PYRIDIN-4-YL]-2-OXOPYRROLIDINE-3-CARBONITRILE DERIVATIVES AS TYROSINE KINASE 2 (TYK2) INHIBITORS FOR THE TREATMENT OF INFLAMMATORY DISEASES” (BIOGEN MA INC., priority 2023, published 2026):
Counter-ions that a name gives are not always drawn.

Legend:
[1] = target: T1, human JAK3 kinase domain (JH1) (Homo sapiens, UniProt P52333); assay: JH1 biochemical assay for JAK3 (ADP-Glo kinase assay, recombinant JH1 catalytic domain, JAK3-974 peptide, 4 μM ATP)
T1 construct: recombinantly generated catalytic kinase (also known as JH1) domain of human JAK1, JAK2, JAK3 and TYK2
In short: (§1)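 Luminescent ADP read-out after residual ATP depletion, 100 min reaction. Kinase domain concentrations were 4 nM (JAK1), 0.2 nM (JAK2), 0.3 nM (JAK3) and 2 nM (TYK2), each with 50 μM peptide. IC50 values came from 4-parameter logistic fits over 11 points, 3-fold steps, top 10 μM or 1 μM.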

[2] = target: T2, human TYK2 kinase domain (JH1) (Homo sapiens, UniProt P29597); assay: JH1 biochemical assay for TYK2 (ADP-Glo kinase assay, recombinant JH1 catalytic domain, JAK3-974 peptide, 10 μM ATP)
T2 construct: recombinantly generated catalytic kinase (also known as JH1) domain of human JAK1, JAK2, JAK3 and TYK2
T2 sequence (P29597 897-1176 limits assumed): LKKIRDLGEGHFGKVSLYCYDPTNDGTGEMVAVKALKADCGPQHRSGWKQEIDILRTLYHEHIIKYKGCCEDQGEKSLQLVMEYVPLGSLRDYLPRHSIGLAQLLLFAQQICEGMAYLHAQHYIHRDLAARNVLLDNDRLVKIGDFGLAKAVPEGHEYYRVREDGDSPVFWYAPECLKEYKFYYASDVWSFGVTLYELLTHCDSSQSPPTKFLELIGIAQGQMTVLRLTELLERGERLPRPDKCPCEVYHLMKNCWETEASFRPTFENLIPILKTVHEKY
In short: as §1

[3] = target: Tyk2 kinase activity on STAT4 in NK92 cells (Homo sapiens, UniProt P29597); assay: pSTAT4 cell assay (MSD; NK92 cells, 30 ng/mL IL2 stimulation); format: cell-based; conditions: 30 ng/mL IL2, 15 minutes
In short: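 Serum-starved NK92 cells were preincubated 1 hr with compound (10-point, four-fold dilutions from 10 μM), then stimulated with 30 ng/mL IL2 for 15 minutes. Lysates were read on an MSD plate assay using anti-STAT4 antibodies, and IC50 came from a 4-parameter logistic fit of normalized percent activity.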

[4] = target: T3, human JAK1 kinase domain (JH1) (Homo sapiens, UniProt P23458); assay: JH1 biochemical assay for JAK1 (ADP-Glo kinase assay, recombinant JH1 catalytic domain, JAK3-342 peptide, 35 μM ATP)
T3 construct: recombinantly generated catalytic kinase (also known as JH1) domain of human JAK1, JAK2, JAK3 and TYK2
In short: as §1

[5] = target: JAK1 kinase activity on STAT3 in TF1 cells (Homo sapiens, UniProt P23458); assay: pSTAT3 cell assay (MSD; TF1 cells, 30 ng/mL IL-6 stimulation); format: cell-based; conditions: 30 ng/mL IL-6, 15 minutes
In short: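 Serum-starved TF1 cells were pretreated with compound for 1 hour (10-point, four-fold dilutions from 10 μM), then stimulated with IL-6 for 15 minutes. Lysates were assayed for pSTAT3 by MSD with anti-STAT3 antibodies; IC50 came from a 4-parameter logistic fit of normalized percent activity.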

[6] = target: T4, human JAK2 kinase domain (JH1) (Homo sapiens, UniProt O60674); assay: JH1 biochemical assay for JAK2 (ADP-Glo kinase assay, recombinant JH1 catalytic domain, JAK3-974 peptide, 15 μM ATP)
T4 construct: recombinantly generated catalytic kinase (also known as JH1) domain of human JAK1, JAK2, JAK3 and TYK2
In short: as §1

[7] = target: JAK2 kinase activity on STAT5 in TF1 cells (Homo sapiens, UniProt O60674); assay: pSTAT5 cell assay (MSD; TF1 cells, 30 ng/mL IL-3 stimulation); format: cell-based; conditions: 30 ng/mL IL-3, 15 minutes
In short: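 Serum-starved TF1 cells with native JAK2/STAT5 were pretreated 1 h with compound (10-point four-fold dilutions from 10 μM), then stimulated 15 min with 30 ng/mL IL-3. pSTAT5 in lysates quantified by MSD immunoassay; normalized percent activity fitted to a 4-parameter logistic curve for IC50.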

JAK2 kinase activity on STAT5 in TF1 cells, sequence (O60674 whole entry): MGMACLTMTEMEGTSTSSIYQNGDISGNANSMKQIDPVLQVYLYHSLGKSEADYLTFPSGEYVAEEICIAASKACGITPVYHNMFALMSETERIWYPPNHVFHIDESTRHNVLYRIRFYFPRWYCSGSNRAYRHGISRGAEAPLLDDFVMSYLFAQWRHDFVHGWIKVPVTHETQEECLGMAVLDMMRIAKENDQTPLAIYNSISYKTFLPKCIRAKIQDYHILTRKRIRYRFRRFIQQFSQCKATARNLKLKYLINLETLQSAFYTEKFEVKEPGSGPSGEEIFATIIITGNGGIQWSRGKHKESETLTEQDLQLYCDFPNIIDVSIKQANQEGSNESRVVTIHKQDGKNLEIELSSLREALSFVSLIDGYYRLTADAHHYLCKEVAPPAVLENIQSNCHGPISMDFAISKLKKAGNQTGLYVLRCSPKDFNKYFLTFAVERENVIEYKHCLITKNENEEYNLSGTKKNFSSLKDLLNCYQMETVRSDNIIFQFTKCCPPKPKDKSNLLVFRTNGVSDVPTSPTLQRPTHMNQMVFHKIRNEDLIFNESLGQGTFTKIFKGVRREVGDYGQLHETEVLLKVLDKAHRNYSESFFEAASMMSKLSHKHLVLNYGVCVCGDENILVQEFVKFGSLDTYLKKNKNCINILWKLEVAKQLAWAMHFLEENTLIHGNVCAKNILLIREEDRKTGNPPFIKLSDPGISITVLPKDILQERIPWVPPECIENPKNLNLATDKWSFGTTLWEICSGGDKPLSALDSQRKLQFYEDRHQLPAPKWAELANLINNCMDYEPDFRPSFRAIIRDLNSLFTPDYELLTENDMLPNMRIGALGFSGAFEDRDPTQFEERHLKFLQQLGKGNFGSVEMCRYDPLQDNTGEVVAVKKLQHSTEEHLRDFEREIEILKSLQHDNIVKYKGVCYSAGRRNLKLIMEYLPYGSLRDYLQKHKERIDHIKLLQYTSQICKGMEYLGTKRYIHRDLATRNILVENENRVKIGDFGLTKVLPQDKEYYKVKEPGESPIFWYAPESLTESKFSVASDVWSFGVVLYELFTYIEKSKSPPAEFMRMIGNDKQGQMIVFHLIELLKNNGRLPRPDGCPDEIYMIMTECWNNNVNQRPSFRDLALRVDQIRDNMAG
T4 sequence (O60674 849-1124 limits assumed): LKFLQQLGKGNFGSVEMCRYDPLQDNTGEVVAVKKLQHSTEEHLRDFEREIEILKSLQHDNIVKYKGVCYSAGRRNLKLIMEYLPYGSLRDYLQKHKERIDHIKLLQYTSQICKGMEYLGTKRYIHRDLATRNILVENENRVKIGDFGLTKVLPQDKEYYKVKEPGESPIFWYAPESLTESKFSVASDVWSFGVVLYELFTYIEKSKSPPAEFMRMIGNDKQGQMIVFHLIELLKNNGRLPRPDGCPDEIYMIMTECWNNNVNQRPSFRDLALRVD
T3 sequence (P23458 875-1153 limits assumed): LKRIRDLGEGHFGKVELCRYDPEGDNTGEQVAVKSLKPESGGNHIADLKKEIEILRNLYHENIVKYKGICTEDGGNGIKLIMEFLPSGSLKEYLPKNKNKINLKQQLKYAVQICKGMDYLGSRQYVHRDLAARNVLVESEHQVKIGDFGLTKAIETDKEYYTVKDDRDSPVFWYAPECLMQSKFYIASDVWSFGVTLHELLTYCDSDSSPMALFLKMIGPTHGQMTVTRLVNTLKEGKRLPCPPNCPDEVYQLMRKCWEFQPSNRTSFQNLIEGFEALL
JAK1 kinase activity on STAT3 in TF1 cells, sequence (P23458 whole entry): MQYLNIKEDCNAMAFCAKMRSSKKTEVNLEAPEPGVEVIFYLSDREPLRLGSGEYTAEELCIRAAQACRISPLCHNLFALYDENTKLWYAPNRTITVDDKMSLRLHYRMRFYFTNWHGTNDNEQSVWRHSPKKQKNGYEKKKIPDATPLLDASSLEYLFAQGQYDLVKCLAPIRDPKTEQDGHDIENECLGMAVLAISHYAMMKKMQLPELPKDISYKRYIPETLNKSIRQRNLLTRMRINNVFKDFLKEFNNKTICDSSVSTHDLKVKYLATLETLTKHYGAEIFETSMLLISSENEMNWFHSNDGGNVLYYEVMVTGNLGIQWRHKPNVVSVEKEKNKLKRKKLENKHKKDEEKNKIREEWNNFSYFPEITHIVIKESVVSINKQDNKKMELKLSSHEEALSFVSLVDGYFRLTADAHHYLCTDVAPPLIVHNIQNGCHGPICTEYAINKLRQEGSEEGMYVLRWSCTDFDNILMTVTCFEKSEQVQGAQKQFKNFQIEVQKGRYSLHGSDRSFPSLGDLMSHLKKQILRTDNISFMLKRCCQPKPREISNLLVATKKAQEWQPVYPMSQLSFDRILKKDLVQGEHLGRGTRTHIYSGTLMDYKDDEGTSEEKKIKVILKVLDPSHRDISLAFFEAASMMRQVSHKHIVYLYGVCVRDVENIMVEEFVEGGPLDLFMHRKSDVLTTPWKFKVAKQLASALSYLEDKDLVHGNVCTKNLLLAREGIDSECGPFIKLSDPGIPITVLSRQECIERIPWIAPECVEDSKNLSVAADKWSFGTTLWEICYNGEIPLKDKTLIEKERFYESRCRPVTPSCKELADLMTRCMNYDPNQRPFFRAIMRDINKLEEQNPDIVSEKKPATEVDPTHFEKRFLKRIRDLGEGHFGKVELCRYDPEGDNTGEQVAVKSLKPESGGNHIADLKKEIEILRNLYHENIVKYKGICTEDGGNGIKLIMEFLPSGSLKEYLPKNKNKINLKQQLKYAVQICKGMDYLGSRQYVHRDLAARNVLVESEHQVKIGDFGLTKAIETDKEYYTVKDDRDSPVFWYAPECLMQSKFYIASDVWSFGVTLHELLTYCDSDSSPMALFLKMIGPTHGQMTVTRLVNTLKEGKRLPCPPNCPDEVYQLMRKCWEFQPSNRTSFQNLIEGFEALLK
Tyk2 kinase activity on STAT4 in NK92 cells, sequence (P29597 whole entry): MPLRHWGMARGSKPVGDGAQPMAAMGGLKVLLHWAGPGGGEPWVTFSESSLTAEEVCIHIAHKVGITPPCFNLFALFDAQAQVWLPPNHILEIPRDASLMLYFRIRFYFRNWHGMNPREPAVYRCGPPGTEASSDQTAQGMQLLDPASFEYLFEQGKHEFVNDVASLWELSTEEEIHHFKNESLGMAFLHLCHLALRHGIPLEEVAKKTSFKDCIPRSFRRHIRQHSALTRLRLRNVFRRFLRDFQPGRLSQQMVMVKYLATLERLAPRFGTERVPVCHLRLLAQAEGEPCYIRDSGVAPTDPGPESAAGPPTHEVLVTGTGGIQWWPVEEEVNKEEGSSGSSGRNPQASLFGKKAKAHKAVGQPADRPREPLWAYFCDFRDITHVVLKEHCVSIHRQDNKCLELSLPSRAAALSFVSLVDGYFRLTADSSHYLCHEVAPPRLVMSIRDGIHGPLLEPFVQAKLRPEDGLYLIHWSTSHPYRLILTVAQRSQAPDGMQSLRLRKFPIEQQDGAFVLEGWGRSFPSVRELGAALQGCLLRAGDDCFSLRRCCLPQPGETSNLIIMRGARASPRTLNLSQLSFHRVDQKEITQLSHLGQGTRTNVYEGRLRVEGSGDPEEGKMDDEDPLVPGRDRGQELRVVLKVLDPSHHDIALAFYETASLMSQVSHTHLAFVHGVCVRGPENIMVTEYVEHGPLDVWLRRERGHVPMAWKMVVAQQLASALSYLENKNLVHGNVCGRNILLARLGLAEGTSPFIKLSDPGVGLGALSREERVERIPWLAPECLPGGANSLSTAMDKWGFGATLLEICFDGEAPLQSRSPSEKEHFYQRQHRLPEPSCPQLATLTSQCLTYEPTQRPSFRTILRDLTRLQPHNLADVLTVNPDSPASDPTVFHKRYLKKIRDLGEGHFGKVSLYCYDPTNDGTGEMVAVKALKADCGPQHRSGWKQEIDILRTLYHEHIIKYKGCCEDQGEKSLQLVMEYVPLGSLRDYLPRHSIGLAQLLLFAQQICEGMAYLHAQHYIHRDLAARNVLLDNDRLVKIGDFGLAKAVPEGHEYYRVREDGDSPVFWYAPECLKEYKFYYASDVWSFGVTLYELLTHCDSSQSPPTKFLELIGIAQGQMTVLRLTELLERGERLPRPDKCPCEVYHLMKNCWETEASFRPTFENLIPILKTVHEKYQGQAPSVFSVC
T1 sequence (P52333 822-1111 limits assumed): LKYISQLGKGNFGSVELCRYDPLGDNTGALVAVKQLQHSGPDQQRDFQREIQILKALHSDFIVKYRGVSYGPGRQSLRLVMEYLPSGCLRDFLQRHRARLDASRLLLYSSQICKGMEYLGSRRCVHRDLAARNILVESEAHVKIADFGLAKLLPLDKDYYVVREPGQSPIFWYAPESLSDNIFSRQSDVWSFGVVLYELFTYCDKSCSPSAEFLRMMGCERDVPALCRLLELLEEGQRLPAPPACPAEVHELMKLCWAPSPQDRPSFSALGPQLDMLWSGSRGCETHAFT

SMILES | IC50 ([1]; JH1 kinase domain, ADP-Glo) | IC50 ([2]; JH1 kinase domain, ADP-Glo) | IC50 [3] | IC50 ([4]; JH1 kinase domain, ADP-Glo) | IC50 [5] | IC50 ([6]; JH1 kinase domain, ADP-Glo) | IC50 [7] | IC50 ([1]; JAK3 JH1, ADP-Glo) | IC50 ([2]; TYK2 JH1, ADP-Glo) | IC50 ([4]; JAK1 JH1, ADP-Glo) | IC50 ([6]; JAK2 JH1, ADP-Glo)
C[C@@H]1CN(c2nc(-c3cnn(C(F)F)c3)cn3ncc(F)c23)C(=O)[C@]1(C#N)C1CC1 [Example 189, (3R,4S)-3-cyclopropyl-1-(6-(1-(difluoromethyl)-1H-pyrazol-4-yl)-3-fluoropyrazolo[1,5-a]pyrazin-4-yl)-4-methyl-2-oxopyrrolidine-3-carbonitrile] | < 100 nM | < 5 nM | 50 to 100 nM | < 100 nM | 1000 to 5000 nM | 100 to 1000 nM | 1000 to 5000 nM | – | – | – | –
C[C@@H]1CN(c2nc(-c3ccnc(C#N)c3)cn3nccc23)C(=O)[C@]1(C#N)C1CC1 [Example 197, 4-(4-((3R,4S)-3-cyano-3-cyclopropyl-4-methyl-2-oxopyrrolidin-1-yl)pyrazolo[1,5-a]pyrazin-6-yl)picolinonitrile] | < 100 nM | 5 to 20 nM | > 100 nM | < 100 nM | 1000 to 5000 nM | 100 to 1000 nM | > 10000 nM | – | – | – | –
C[C@@H]1CN(c2nc(-c3ccc(=O)n(C(F)F)c3)cn3nccc23)C(=O)[C@]1(C#N)C1CC1 [Example 210, (3R,4S)-3-cyclopropyl-1-(6-(1-(difluoromethyl)-6-oxo-1,6-dihydropyridin-3-yl)pyrazolo[1,5-a]pyrazin-4-yl)-4-methyl-2-oxopyrrolidine-3-carbonitrile] | < 100 nM | < 5 nM | > 100 nM | < 100 nM | 1000 to 5000 nM | 100 to 1000 nM | 5000 to 10000 nM | – | – | – | –
C[C@@H]1CN(c2ccnn3cc(-c4cnc5cc(C#N)ccn45)cc23)C(=O)[C@]1(C#N)C1CC1 [Example 103, 3-(4-((3R,4S)-3-cyano-3-cyclopropyl-4-methyl-2-oxopyrrolidin-1-yl)pyrrolo[1,2-b]pyridazin-6-yl)imidazo[1,2-a]pyridine-7-carbonitrile trifluoroacetate] | > 10000 nM | 5 to 20 nM | > 100 nM | > 10000 nM | > 10000 nM | > 10000 nM | > 10000 nM | – | – | – | –
C[C@@H]1CN(c2nc(-c3cnn(C)c3)cn3ncc(F)c23)C(=O)[C@]1(C#N)C1CC1 [Example 187, (3R,4S)-3-cyclopropyl-1-(3-fluoro-6-(1-methyl-1H-pyrazol-4-yl)pyrazolo[1,5-a]pyrazin-4-yl)-4-methyl-2-oxopyrrolidine-3-carbonitrile] | < 100 nM | < 5 nM | 50 to 100 nM | < 100 nM | 1000 to 5000 nM | 100 to 1000 nM | 1000 to 5000 nM | – | – | – | –
[2H]C([2H])([2H])n1cc(-c2cc3c(N4C[C@@H](C)[C@@](C#N)(C5CC5)C4=O)ccnn3c2)cn1 [Example 164, (3R,4 S)-3-cyclopropyl-4-methyl-1-(6-(1-(methyl-d3)-1H-pyrazol-4-yl)pyrrolo[1,2-b]pyridazin-4-yl)-2-oxopyrrolidine-3-carbonitrile] | < 100 nM | < 5 nM | 20 to 50 nM | < 100 nM | 1000 to 5000 nM | 100 to 1000 nM | 5000 to 10000 nM | – | – | – | –
C[C@@H]1CN(c2nc(-c3cnn(C4CCOCC4)c3)cn3nccc23)C(=O)[C@]1(C#N)C1CC1 [Example 203, (3R,4S)-3-cyclopropyl-4-methyl-2-oxo-1-(6-(1-(tetrahydro-2H-pyran-4-yl)-1H-pyrazol-4-yl)pyrazolo[1,5-a]pyrazin-4-yl)pyrrolidine-3-carbonitrile] | < 100 nM | < 5 nM | 20 to 50 nM | < 100 nM | 100 to 1000 nM | < 100 nM | < 100 nM | – | – | – | –
CCc1ccc(-c2cc3c(N4C[C@@H](C)[C@@](C#N)(C5CC5)C4=O)ccnn3c2)cn1 [Example 174, (3R,4S)-3-cyclopropyl-1-(6-(6-ethylpyridin-3-yl)pyrrolo[1,2-b]pyridazin-4-yl)-4-methyl-2-oxopyrrolidine-3-carbonitrile trifluoroacetate] | 100 to 1000 nM | 5 to 20 nM | 50 to 100 nM | 100 to 1000 nM | 1000 to 5000 nM | 100 to 1000 nM | 5000 to 10000 nM | – | – | – | –

The remaining lines, values ahead:

IC50 ([1]; JH1 kinase domain, ADP-Glo) | IC50 ([2]; JH1 kinase domain, ADP-Glo) | IC50 [3] | IC50 ([4]; JH1 kinase domain, ADP-Glo) | IC50 [5] | IC50 ([6]; JH1 kinase domain, ADP-Glo) | IC50 [7] | IC50 ([1]; JAK3 JH1, ADP-Glo) | IC50 ([2]; TYK2 JH1, ADP-Glo) | IC50 ([4]; JAK1 JH1, ADP-Glo) | IC50 ([6]; JAK2 JH1, ADP-Glo) | SMILES
– | – | 50 to 100 nM | – | 1000 to 5000 nM | – | 1000 to 5000 nM | < 100 nM | < 5 nM | 100 to 1000 nM | 100 to 1000 nM | C[C@@H]1CN(c2ccnn3cc(-c4cnn(C5CCN(C)C5)c4)cc23)C(=O)[C@]1(C#N)C1CC1 (stereo partly drawn) [Example 332, (3R,4S)-3-cyclopropyl-4-methyl-1-(6-(1-(1-methylpyrrolidin-3-yl)-1H-pyrazol-4-yl)pyrrolo[1,2-b]pyridazin-4-yl)-2-oxopyrrolidine-3-carbonitrile]
– | – | 20 to 50 nM | – | 100 to 1000 nM | – | 100 to 1000 nM | < 100 nM | < 5 nM | < 100 nM | < 100 nM | C[C@@H]1CN(c2nc(-c3cnn(C4CC(F)(F)C4)c3)cn3nccc23)C(=O)[C@]1(C#N)C1CC1 [Example 290, (3R,4S)-3-cyclopropyl-1-(6-(1-(3,3-difluorocyclobutyl)-1H-pyrazol-4-yl)pyrazolo[1,5-a]pyrazin-4-yl)-4-methyl-2-oxopyrrolidine-3-carbonitrile]
– | – | 50 to 100 nM | – | 100 to 1000 nM | – | 100 to 1000 nM | < 100 nM | < 5 nM | < 100 nM | < 100 nM | CO[C@H]1C[C@H](n2cc(-c3cn4ncc(F)c4c(N4C[C@@H](C)[C@@](C#N)(C5CC5)C4=O)n3)cn2)C1 [Example 299, (3R,4S)-3-cyclopropyl-1-(3-fluoro-6-(1-((1r,3R)-3-methoxycyclobutyl)-1H-pyrazol-4-yl)pyrazolo[1,5-a]pyrazin-4-yl)-4-methyl-2-oxopyrrolidine-3-carbonitrile]
– | – | 50 to 100 nM | – | > 10000 nM | – | > 10000 nM | 100 to 1000 nM | 5 to 20 nM | 100 to 1000 nM | 1000 to 5000 nM | C[C@@H]1CN(c2nc(-c3cnc(N(C)C)nc3)cn3nccc23)C(=O)[C@]1(C#N)C1CC1 [Example 264, (3R,4S)-3-cyclopropyl-1-(6-(2-(dimethylamino)pyrimidin-5-yl)pyrazolo[1,5-a]pyrazin-4-yl)-4-methyl-2-oxopyrrolidine-3-carbonitrile trifluoroacetate]
– | – | 50 to 100 nM | – | 1000 to 5000 nM | – | 1000 to 5000 nM | < 100 nM | < 5 nM | < 100 nM | < 100 nM | C[C@@H]1CN(c2ccnn3cc(-c4cnn(C5(CC#N)CC5)c4)cc23)C(=O)[C@]1(C#N)C1CC1 [Example 323]
